From PubChem BioAssay (NCI)
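Test compounds were applied to cells in 96-well plates for 48 hours at 5 doses. At the TGI there is no net growth.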

Key:
Assay in all cases: growth of human tumour cells (NCI), 48 h
786-0 renal = system: 786-0 renal
A498 renal = system: A498 renal
A549 NSCLC = system: A549 NSCLC
ACHN renal = system: ACHN renal
BT-549 breast = system: BT-549 breast
CAKI-1 renal = system: CAKI-1 renal
CCRF-CEM leukemia = system: CCRF-CEM leukemia
EKVX NSCLC = system: EKVX NSCLC
HCT-116 colon = system: HCT-116 colon
HCT-15 colon = system: HCT-15 colon
HL-60(TB) leukemia = system: HL-60(TB) leukemia
HOP-62 NSCLC = system: HOP-62 NSCLC
HOP-92 NSCLC = system: HOP-92 NSCLC
HS 578T breast = system: HS 578T breast
HT29 colon = system: HT29 colon
IGROV1 ovarian = system: IGROV1 ovarian
K-562 leukemia = system: K-562 leukemia
KM12 colon = system: KM12 colon
LOX IMVI melanoma = system: LOX IMVI melanoma
M14 melanoma = system: M14 melanoma
MALME-3M melanoma = system: MALME-3M melanoma
MDA-MB-231 breast = system: MDA-MB-231 breast
MDA-MB-435 = system: MDA-MB-435
MDA-N = system: MDA-N
MOLT-4 leukemia = system: MOLT-4 leukemia
NCI-H226 lung = system: NCI-H226 lung
NCI-H23 lung = system: NCI-H23 lung
NCI-H460 lung = system: NCI-H460 lung
NCI-H522 lung = system: NCI-H522 lung
NCI/ADR-RES ovarian = system: NCI/ADR-RES ovarian
OVCAR-3 ovarian = system: OVCAR-3 ovarian
OVCAR-4 ovarian = system: OVCAR-4 ovarian
OVCAR-5 ovarian = system: OVCAR-5 ovarian
OVCAR-8 ovarian = system: OVCAR-8 ovarian
PC-3 prostate = system: PC-3 prostate
RPMI-8226 leukemia = system: RPMI-8226 leukemia
RXF 393 renal = system: RXF 393 renal
SF-268 CNS = system: SF-268 CNS
SF-295 CNS = system: SF-295 CNS
SK-MEL-2 melanoma = system: SK-MEL-2 melanoma
SK-MEL-28 melanoma = system: SK-MEL-28 melanoma
SK-MEL-5 melanoma = system: SK-MEL-5 melanoma
SN12C renal = system: SN12C renal
SNB-19 CNS = system: SNB-19 CNS
SR leukemia = system: SR leukemia
SW-620 colon = system: SW-620 colon
T-47D breast = system: T-47D breast
TK-10 renal = system: TK-10 renal
U251 CNS = system: U251 CNS
UACC-257 melanoma = system: UACC-257 melanoma
UACC-62 melanoma = system: UACC-62 melanoma
UO-31 renal = system: UO-31 renal
COLO 205 colon = system: COLO 205 colon
DU-145 prostate = system: DU-145 prostate
HCC-2998 colon = system: HCC-2998 colon
MCF7 breast = system: MCF7 breast
SK-OV-3 ovarian = system: SK-OV-3 ovarian
SNB-75 CNS = system: SNB-75 CNS
SF-539 CNS = system: SF-539 CNS

Measured: TGI

NC(CCP(=O)(O)O)C(=O)O (configuration not stated)
not listed: COLO 205 colon | DU-145 prostate | HCC-2998 colon | MCF7 breast | SK-OV-3 ovarian | SNB-75 CNS | SF-539 CNS
> 100 µM: all other assays above

CCOC(=O)NN(C(=O)OCC)C(=C(C1=CCCCC1)N1CCOCC1)N(NC(=O)OCC)C(=O)OCC
not listed: CCRF-CEM leukemia | HCT-116 colon | HS 578T breast | NCI-H522 lung | OVCAR-4 ovarian | SK-MEL-2 melanoma | SK-MEL-5 melanoma | UACC-257 melanoma | SF-539 CNS
> 100 µM: all other assays above

O=C1c2ccccc2C(=O)c2c(NC(=O)C3CC3)ccc(NC(=O)C3CC3)c21
not listed: CAKI-1 renal | CCRF-CEM leukemia | HOP-92 NSCLC | M14 melanoma | NCI-H226 lung | OVCAR-4 ovarian | RXF 393 renal | SF-268 CNS | DU-145 prostate | SK-OV-3 ovarian | SNB-75 CNS
> 100 µM: all other assays above

COC(=O)Cc1c([C@H]2[C@H](CC(=O)OC)c3ccccc3N2S(=O)(=O)c2ccc(C)cc2)[nH]c2ccccc12
> 84.9 µM: SR leukemia
not listed: IGROV1 ovarian | T-47D breast
> 100 µM: all other assays above
